Reference: BindingDB's records for PubMed 2746503 (Universit&Eacute, 1989)
“And” between values parts separate entries of the source, which are not always exact repeats. Equal entries are not always repeated.

Legend:
[1] = molecular target: T1, Muscarinic acetylcholine receptor M2 (Rattus norvegicus, UniProt P10980)
T1 sequence (P10980 whole entry): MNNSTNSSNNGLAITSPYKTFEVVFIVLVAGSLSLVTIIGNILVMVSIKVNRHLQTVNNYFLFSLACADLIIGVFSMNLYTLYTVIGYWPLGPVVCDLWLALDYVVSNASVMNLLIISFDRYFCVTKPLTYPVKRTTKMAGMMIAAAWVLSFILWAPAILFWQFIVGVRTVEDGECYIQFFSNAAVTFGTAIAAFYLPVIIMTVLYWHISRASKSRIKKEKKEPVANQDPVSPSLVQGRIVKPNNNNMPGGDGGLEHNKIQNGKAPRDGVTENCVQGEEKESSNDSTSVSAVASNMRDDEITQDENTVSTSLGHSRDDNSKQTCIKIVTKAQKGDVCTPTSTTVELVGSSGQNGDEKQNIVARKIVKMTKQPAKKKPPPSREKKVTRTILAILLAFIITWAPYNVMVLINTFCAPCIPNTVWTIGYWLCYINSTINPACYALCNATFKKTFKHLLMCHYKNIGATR

[2] = molecular target: T2, Muscarinic acetylcholine receptor M2 (Homo sapiens, UniProt P08172)
T2 sequence (P08172 whole entry): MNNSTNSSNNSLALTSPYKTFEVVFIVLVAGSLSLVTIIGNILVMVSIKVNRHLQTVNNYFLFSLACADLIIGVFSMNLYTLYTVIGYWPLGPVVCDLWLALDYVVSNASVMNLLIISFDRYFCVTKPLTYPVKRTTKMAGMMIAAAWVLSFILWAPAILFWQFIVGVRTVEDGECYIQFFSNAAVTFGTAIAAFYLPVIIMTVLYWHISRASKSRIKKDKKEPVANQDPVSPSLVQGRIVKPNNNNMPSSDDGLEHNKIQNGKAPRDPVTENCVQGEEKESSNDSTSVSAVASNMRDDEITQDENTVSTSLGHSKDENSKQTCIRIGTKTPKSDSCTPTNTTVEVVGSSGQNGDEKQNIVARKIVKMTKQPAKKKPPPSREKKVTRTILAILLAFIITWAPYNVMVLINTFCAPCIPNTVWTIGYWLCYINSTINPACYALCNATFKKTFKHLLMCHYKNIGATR

[3] = molecular target: T3, Muscarinic acetylcholine receptor M2 (Sus scrofa, UniProt P06199)
T3 sequence (P06199 whole entry): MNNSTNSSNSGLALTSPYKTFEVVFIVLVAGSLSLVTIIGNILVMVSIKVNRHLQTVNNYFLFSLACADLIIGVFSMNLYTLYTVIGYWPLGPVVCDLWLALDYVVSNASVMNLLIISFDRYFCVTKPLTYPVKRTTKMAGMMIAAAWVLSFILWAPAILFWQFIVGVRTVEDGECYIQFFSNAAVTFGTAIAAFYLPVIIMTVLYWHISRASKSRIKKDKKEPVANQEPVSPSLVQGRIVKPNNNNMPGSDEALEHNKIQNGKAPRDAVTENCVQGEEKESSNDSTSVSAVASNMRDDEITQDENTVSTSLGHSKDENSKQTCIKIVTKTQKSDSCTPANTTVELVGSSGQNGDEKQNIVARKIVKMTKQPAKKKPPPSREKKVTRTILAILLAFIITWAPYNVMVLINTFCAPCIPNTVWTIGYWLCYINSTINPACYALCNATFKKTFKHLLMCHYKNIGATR

Compound	Ki [1]	Ki [2]	Ki [3]
CCN(CC)CC1CCCCN1CC(=O)N1c2ccccc2C(=O)Nc2cccnc21 (centres undefined) [(AF-DX 116) 11-[2-(2-Diethylaminomethyl-piperidin-1-yl)-acetyl]-5,11-dihydro-benzo[e]pyrido[3,2-b][1,4]diazepin-6-one]	31.1 nM and 26.9 nM	99.6 nM and 17.4 nM	28.8 nM and 21.8 nM
CN1CCN(CC(=O)N2c3ccccc3C(=O)Nc3cccnc32)CC1 [11-[(4-methylpiperazin-1-yl)acetyl]-5,11-dihydro-6H-pyrido[2,3-b][1,4]benzodiazepin-6-one]			80.7 nM and 276 nM
